Values of other authors, collected in patent US7163699B2, “Progestin co-micronized with a surfactant pharmaceutical composition comprising same methods for making same and uses thereof” (Laboratories Besins International, priority 2001, dated 2007).

Settings: co-micronization with sodium lauryl sulfate or a sucrose ester of stearic acid

O=C1NC(=O)C(c2ccccc2)(c2ccccc2)N1 [phenitoin]
solubility of phenitoin: not improved
